{"source": "patent US20130005678A1", "about": "“Methods and Compositions for Treating or Ameliorating Cancer Using Gemcitabine-5'-Elaidate” (CLAVIS PHARMA ASA, priority 2010, published 2013)", "key": {"[1]": {"tested_on": "THX, Lox, MOLT4, and MOLT4/C", "assay": "Protection by dipyridamole from cell killing in vitro (FIG. 4)", "format": "cell-based", "conditions": "four cell lines", "from_the_text": "The number on the Y axis is the fold protection by dipyridamole from administration of gemcitabine and gemcitabine-5′-elaidate."}, "[2]": {"tested_on": "WiDr human colon carcinoma", "assay": "Combination study in vitro, growth inhibition, median effect analysis (WiDr)", "format": "cell-based", "procedure": "The cell lines A549 human NSCLC and WiDr human colon carcinoma are used to determine the combination index and also the effect of Gemcitabine-5′-elaidate on the cell cycle. A sulforhodamine B colorimetric assay is used to determine growth inhibition after 72 hours. Pemetrexed combinations are tested using the MTT assay. Combinations with pemetrexed are also tested in the WiDr-LF cell line, which are WiDr cells cultured under low folate conditions. The IC25 and IC50 values (inhibitory concentrations at 25% or 50%, respectively) are calculated. The IC25 value is used for combinations with serial dilutions of oxaliplatin or docetaxel, and the IC50 value is used for pemetrexed combinations. Median effect analysis is performed."}, "[3]": {"tested_on": "WiDr cell line", "assay": "Cell cycle analysis, flow cytometry with propidium iodide (WiDr)", "format": "cell-based, human", "procedure": "(§1) The effect on cell cycle is determined after 72 h exposure using flow cytometry combined with propidium iodide staining For cell cycle analysis, the concentration range is from 0.0005 μM to 0.05 μM in the A549 cell line and from 0.001 μM to 0.1 μM in the WiDr cell line. […] The effect on cell cycle is obtained also for the combinations with pemetrexed."}, "[4]": {"tested_on": "human colon cancer Co6044", "assay": "Antitumor activity in human colon xenograft Co6044 (intraperitoneal)", "format": "in vivo", "conditions": "intraperitoneally every third day five times", "procedure": "Fragments of human colon cancers Co5776 and Co6044 are implanted subcutaneously in NCR female mice (7-8 mice/group). Gemcitabine (120 mg/kg) and gemcitabine-5′-elaidic acid ester (40 mg/kg) are administered intraperitoneally, every third day for five times."}, "[5]": {"tested_on": "Co6044", "assay": "Oral activity and schedule dependency in mice with Co6044", "format": "in vivo, human", "procedure": "Oral administration of Gemcitabine-5′-elaidic acid ester and gemcitabine is tested in NCr:nu/nu mice for potential antitumor activity. Treatment is every third day repeated five times. In a follow-up experiment, the antitumor activity of oral and intraperitoneal treatment is compared in this colon cancer model (Co6044). The doses for oral treatment with Gemcitabine-5′-elaidic acid ester and gemcitabine are lower (20, 30, or 40 mg/kg) than in the previous experiment.\nIn this experiment, the antitumor activity of oral Gemcitabine-5′-elaidic acid ester in three different administration schedules is compared: every 3 days times 5, daily times 5, and once weekly times 2. Three doses are tested per schedule."}, "[6]": {"tested_on": "A549", "assay": "Platinum accumulation in DNA (A549)", "format": "cell-based, human", "conditions": "oxaliplatin 200 μM combined with Gemcitabine-5′-elaidate 0.004 μM", "procedure": "(§2) The effect on DNA platinum accumulation in DNA after exposure to oxaliplatin and oxaliplatin combined with Gemcitabine-5′-elaidate (oxaliplatin [200 μM] combined with Gemcitabine-5′-elaidate [0.004 μM]) is also determined."}, "[7]": {"tested_on": "CCRF-CEM human leukemia cell line", "assay": "Triphosphate accumulation and retention in CCRF-CEM cells", "format": "cell-based", "from_the_text": "Drugs: Gemcitabine-5′-elaidate was provided by Clavis Pharma (Oslo, Norway), tetra hydro uridine (THU) was from Calbiochem (Merck, Darmstadt, Germany), dipyridamole and ara-C were from Sigma-Aldrich (St. Louis, Mo., USA) and dFdC was from Eli-Lilly (Indianapolis, Ind., USA). The radioactively labeled drugs were obtained from Moravek (Brea, Calif., USA); the drugs were labeled with tritium on the 5-C site of the base. A mix of radioactive and non-radioactive compounds was made for exposure of cells; dFdC and CP-4126 were used at a final concentration of 8.9 μM and a specific activity of 586 and 391 mCi/mmol, respectively.\nCell lines: For the experiments the CCRF-CEM human leukemia cell line and its dCK negative variant (CEM/dCK−) were used. The cell lines were cultured in RPMI medium (BioWhittaker, Verviers, Belgium) supplemented with 10% fetal calf serum (PAA laboratories, Pasching, Austria) and HEPES buffer (BioWhittaker). Of the nucleoside influx transporters, the CEM cell line only expresses the equilibrative nucleoside transporter (hENT) and not the concentrative nucleoside transporter (hCNT). Belt et al. Adv. Enzyme Regul., 1993, 33, 235-52. Dipyridamole (DP) was used to inhibit the influx of the drugs by hENT. In order to get a clean picture, THU was also added to inhibit deamination of ara-C and dFdC.\nTriphosphate accumulation: Cells were treated with 1 and 10 μM of dFdC, while for the lipophilic analogs 10 and 100 μM was used. The cells were incubated for 60 minutes and retention of the triphosphates was investigated after 60 and 120 minutes incubation in drug-free medium. Dipyridamole was added to inhibit drug influx by the hENT transporter. After incubation the cell pellet was resuspended in ice-cold PBS and incubated for 20 minutes at 4° C. with 40% trichloroacetic acid. After centrifugation (10,000 g, 10 min, 4° C.) the supernatant was treated with a 2-fold excess of trioctylamine/1,1,2-trichlorotrifluorethane (1:4) and spun down (10,000 g, 1 min) and the aqueous phase was stored at −20° C. until analysis by HPLC on a Whatman Partisphere SAX column (GE healthcare, Chalfont St. Giles, UK) using gradient (dFdC-TP) elution as described earlier. Noordhuis et al., Leuk. Res., 1996, 20, 127-34; Ruiz van Haperen, et al., Biochem. Pharmacol., 1994, 48, 1327-39."}, "[8]": {"tested_on": "human glioma cells U373", "assay": "Antitumor activity in human glioma xenograft model U373 (subcutaneous)", "format": "in vivo", "conditions": "NCR mice, intraperitoneal", "from_the_text": "NCR mice are inoculated subcutaneously on Day 0 with human glioma cells U373. Treatment (intraperitoneal) starts on Day 7, either every third day or weekly."}, "[9]": {"tested_on": "Co-26 murine colon cancer cells", "assay": "Antitumor effect in Co-26 liver metastasis model", "format": "in vivo", "conditions": "single dose 75 mg/kg", "procedure": "Antitumor effect of single dose of gemcitabine-5′-elaidic acid ester or gemcitabine is tested in Balb/C female mice injected with Co-26 murine colon cancer cells in the spleen (a liver metastasis model). […] The activity of gemcitabine is similar."}, "[10]": {"tested_on": "A549 cell line", "assay": "Cell cycle analysis, flow cytometry with propidium iodide (A549)", "format": "cell-based, human", "procedure": "as §1"}, "[11]": {"tested_on": "WiDr cell line", "assay": "Platinum accumulation in DNA (WiDr)", "format": "cell-based, human", "conditions": "oxaliplatin 200 μM combined with Gemcitabine-5′-elaidate 0.004 μM", "procedure": "as §2"}, "[12]": {"conditions": "72 hours, sulforhodamine B assay"}, "[13]": {"conditions": "72 h exposure, 0.001 μM to 0.1 μM"}}, "data": [{"smiles": "CCCCCCCC/C=C/CCCCCCCC(=O)OC[C@H]1O[C@@H](n2ccc(N)nc2=O)C(F)(F)[C@@H]1O", "note": "[gemcitabine-5′-elaidic acid ester]", "values": [{"measurement": "protection by dipyridamole (blocking transporters) against cell killing", "setting": "[1]", "result": "does not protect"}, {"measurement": "combination effect with docetaxel", "setting": "[2]; [12]", "result": "antagonistic"}, {"measurement": "combination effect with oxaliplatin", "setting": "[2]; [12]", "result": "synergistic"}, {"measurement": "combination effect with pemetrexed", "setting": "[2]; MTT assay", "result": "Antagonistic activity"}, {"measurement": "G2/M phase, combination with pemetrexed", "setting": "[3]", "result": "only a marginal increase"}, {"measurement": "S phase accumulation", "setting": "[3]; [13]", "result": "S phase accumulation at the two highest concentrations"}, {"measurement": "sub G1 accumulation", "setting": "[3]; [13]", "result": "dose dependent sub G1 accumulation"}, {"measurement": "activity compared with gemcitabine", "setting": "[4]; 40 mg/kg vs gemcitabine 120 mg/kg", "result": "similar"}, {"measurement": "antitumor effect", "setting": "[4]; NCR female mice, gemcitabine 120 mg/kg, gemcitabine-5′-elaidic acid ester 40 mg/kg", "result": "Significant antitumor effect"}, {"measurement": "antitumor activity", "setting": "[5]; every 3 days times 5, daily times 5, once weekly times 2, all tested schedules", "result": "High antitumor activity"}, {"measurement": "dose dependence of activity", "setting": "[5]; three doses per schedule", "result": "dose dependent"}, {"measurement": "platinum adducts in DNA, oxaliplatin combined vs oxaliplatin alone", "setting": "[6]", "result": "but not in A549"}, {"measurement": "retention of dFdC-TP concentration after washing away the drugs", "setting": "[7]; 60 and 120 minutes in drug-free medium", "result": "retained at a similar level"}, {"measurement": "effect of dipyridamole on dFdC-TP accumulation", "setting": "[7]; hENT inhibited by dipyridamole", "result": "even increased the concentration of triphosphates"}, {"measurement": "antitumor effect compared with gemcitabine", "setting": "[8]; dosed Days 7 and 14 (weekly)", "result": "better than that of gemcitabine"}, {"measurement": "antitumor effect compared with gemcitabine", "setting": "[8]; every third day schedule from Day 7", "result": "equal to gemcitabine"}, {"measurement": "antitumor activity", "setting": "[9]; Balb/C female mice, Co-26 cells in the spleen", "result": "significant antitumor activity"}, {"measurement": "hematological parameters", "setting": "[9]", "result": "moderate reduction"}, {"measurement": "mean survival in days and Treated/Control (T/C, %) over saline control", "setting": "[9]", "result": "significant increase"}, {"measurement": "effect on cell cycle", "setting": "[10]; 72 h exposure, 0.0005 μM to 0.05 μM", "result": "no effect on cell cycle"}, {"measurement": "G0/G1 phase, combination with pemetrexed", "setting": "[10]; increased from 8.8%", "result": 14.1, "unit": "%"}, {"measurement": "S phase, combination with pemetrexed", "setting": "[10]; increased from 23.1%", "result": 28.5, "unit": "%"}, {"measurement": "platinum adducts in DNA, oxaliplatin combined vs oxaliplatin alone", "setting": "[11]", "result": "increase of platinum adducts"}]}]}
